Assay results as given in US6380465B1, “Cytochrome P450 enzymes and related compounds and methods” (University of Kentucky Research Foundation, priority 1998, dated 2002).

Experiments:
[1] = system: CYP72A1 P450; assay: Metabolism of pesticide substrates by the CYP72A1 P450 expressed with a reductase (yeast microsomes, [14C]-labeled substrates, HPLC); format: in vitro ADME, Zea mays (maize); details: expressed in the presence of a reductase; chromatographs FIGS. 8-11
Source text: Both genes (CYP72A1 and CYP92A1), obtained as described in Example 1, were introduced into pYeDP60 vector for yeast expression. CYP72A1 was introduced as a full length gene with in-frame Met 1 and 8 as the start codons, while CYP92A1 was modified for the expression.
Expression strategies include using both full length or truncated (Met 8 start site) CYP72A1 cDNA in yeast strains WAT11, WAT21 W (R) from Philippe Urban and Denis Pompon, with, optionally, yeast vector pYeDP60. Expression is ideally achieved with full length cDNA and WAT11. Expression may also require 36 hours rather than 24 hours of galactose induction prior to microsome preparation. Glucose (SGI) or galactose (SLI) media prior to induction will give expression.
Metabolism experiments can be accomplished using microsomes prepared from yeast cells. The substrates can be incubated with [^14C]-labeled substrates and products analyzed by HPLC.

[2] = system: multiple pesticide metabolizing P450 in corn; details: FIG. 13, cited from earlier work
[3] = system: corn line GA209; details: FIG. 12, thesis of Laura Boldt; cited from earlier work
[4] = molecular target: T1, CYP73A1 (Helianthus tuberosus, UniProt Q04468); details: cited from earlier work
T1 sequence (Q04468 1-505): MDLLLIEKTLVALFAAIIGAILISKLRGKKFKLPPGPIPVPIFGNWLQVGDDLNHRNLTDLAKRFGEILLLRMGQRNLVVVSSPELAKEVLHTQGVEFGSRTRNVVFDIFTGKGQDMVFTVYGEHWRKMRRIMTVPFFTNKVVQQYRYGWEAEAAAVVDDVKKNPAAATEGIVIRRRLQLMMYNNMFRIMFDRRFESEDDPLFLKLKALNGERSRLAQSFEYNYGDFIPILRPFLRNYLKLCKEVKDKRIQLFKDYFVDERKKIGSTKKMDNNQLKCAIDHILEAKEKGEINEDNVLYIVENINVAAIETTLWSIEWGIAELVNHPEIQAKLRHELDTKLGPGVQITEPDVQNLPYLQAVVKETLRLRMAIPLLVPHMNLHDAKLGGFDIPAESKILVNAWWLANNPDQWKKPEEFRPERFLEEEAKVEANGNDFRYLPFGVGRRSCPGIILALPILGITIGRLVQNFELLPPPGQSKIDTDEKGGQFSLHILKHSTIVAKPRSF

[5] = system: soybean P450; details: cited from earlier work
[6] = system: CYP72A1; assay: Induction of CYP72A1 expression by NA-treatment (Northern blot, maize seedlings); format: in vivo; details: FIG. 5
Procedure: (§1) A maize cDNA library was constructed from napthalic anhydride (NA)-treated Pioneer 3343IR 3.5-day-old seedlings using lambda-ZAPII vector kit (Stratagene).
(§2) Northern blot analysis was performed with total RNA isolated from control and […] and hybridized under high stringency conditions. To estimate the copy number, Southern blot analysis was performed using genomic DNA from 3343IR maize which was digested with SacI EcoRV, EcoRI, HindIII, and BamHI. The analysis was carried out under high stringency (65 degrees Celsius in 0.1×SSC and 0.1% SDS).
(§3) Based on the results of the genomic Southern blot analysis, the hybridization patterns were consistent with those predicted from the restriction patterns of the corresponding cDNAs. […] Certain physico-chemical characteristics for the deduced proteins, antigenicity and secondary structure were calculated using Network Protein Sequence Analysis at IBCP, France.

[7] = system: CYP92A1; assay: Induction of CYP92A1 expression by NA-treatment (Northern blot, maize seedlings); format: in vivo; details: FIG. 5
Procedure: as §1, §2, §3

| SMILES | metabolism of the substrate by the CYP72A1 P450 [1] | sensitivity of corn line GA209 to the herbicide [3] | other results |
| --- | --- | --- | --- |
| O=C(O)COc1ccc(Cl)cc1Cl [2,4-D] | Unmetabolized | – | – |
| COc1cc(Cl)nc(NC(=O)NS(=O)(=O)c2ccccc2C(=O)O)n1 [chlorimuron] | shown to metabolize | – | – |
| CCOP(=S)(OCC)SCS(=O)(=O)C(C)(C)C [terbufos-sulfone] | – | – | inhibition of in-vitro metabolism of bentazon ([2]; substrate bentazon): inhibited; inhibition of in-vitro metabolism of chlorimuron ([2]; substrate chlorimuron): inhibited; inhibition of in-vitro metabolism of imazethapyr ([2]; substrate imazethapyr): inhibited; inhibition of in-vitro metabolism of malathion ([2]; substrate malathion): inhibited; inhibition of in-vitro metabolism of nicosulfuron ([2]; substrate nicosulfuron): inhibited |
| COc1cc(OC)nc(NC(=O)NS(=O)(=O)c2ncccc2C(=O)N(C)C)n1 [nicosulfuron] | – | sensitive | – |
| CCc1cccc(CC)c1N(COC)C(=O)CCl [alachlor] | Unmetabolized | – | – |
| Cc1ccc(NC(=O)N(C)C)cc1Cl [chlortoluron] | shown to metabolize | – | metabolism by CYP73A1 [4]: shown to metabolize; metabolism by a soybean P450 [5]: shown to metabolize |
| CCOC(=O)CC(SP(=S)(OC)OC)C(=O)OCC (stereo not drawn) [malathion] | shown to metabolize | – | – |
| CC(C)N1C(=O)c2ccccc2NS1(=O)=O [bentazon] | shown to metabolize | sensitive | – |
| CON(C)C(=O)Nc1ccc(Cl)c(Cl)c1 [linuron] | Unmetabolized | – | metabolism by a soybean P450 [5]: shown to metabolize |
| O=C(Nc1nc(OC(F)F)cc(OC(F)F)n1)NS(=O)(=O)c1ccccc1C(=O)O [primisulfuron] | – | sensitive | – |
| O=C1OC(=O)c2cccc3cccc1c23 [NA, napthalic anhydride] | – | – | induction of CYP72A1 expression [6]: highly induced; induction of CYP92A1 expression [7]: induced significantly less |
| CCc1cnc(C2=NC(C)(C(C)C)C(=O)N2)c(C(=O)O)c1 (stereo not drawn) [imazethapyr] | – | sensitive | – |
